Measured values published in DBAASP.
In brackets after ≈: the same amount, converted by molar mass. Several values for one entry are separate records, joined by “and”; a condition that tells them apart may be missing. Identical values can stand only once. One block for each molecule: values may come before it.

How the values were obtained:
Assay in all cases: ≥ marks a high value that may be exact or a test limit, other limits are often not marked, values filed in µg/mL are converted to µM
[1] = tested on: Staphylococcus aureus NCTC 10788
[2] = tested on: Escherichia coli NCTC 10418
[3] = tested on: Candida albicans NCPF 1467
[4] = tested on: Staphylococcus aureus NCTC 8325
[5] = tested on: Enterococcus faecalis ATCC 29212
[6] = tested on: Staphylococcus epidermidis RP62A
[7] = tested on: Pseudomonas aeruginosa ATCC 27853
[8] = tested on: Staphylococcus aureus NCTC 12493
[9] = tested on: Enterococcus faecalis NCTC 12697
[10] = tested on: Staphylococcus aureus USA 300
Escherichia coli K-12 = tested on: Escherichia coli K-12
[11] = tested on: Staphylococcus aureus ATCC BAA-1556
Escherichia coli BW25113 = tested on: Escherichia coli BW25113
[12] = tested on: Micrococcus luteus ATCC 4698

MIC [1]: 4 µM (≈ 8.24 µg/mL)
MIC [2]: 8 µM (≈ 16.5 µg/mL)
MIC [3]: 4 µM (≈ 8.24 µg/mL)
Structure (SMILES): CC[C@H](C)[C@H](NC(=O)[C@H](C)NC(=O)[C@H](CCCCN)NC(=O)[C@@H]1CCCN1C(=O)[C@@H](NC(=O)[C@H](CC(C)C)NC(=O)[C@H](CCCCN)NC(=O)[C@H](Cc1ccccc1)NC(=O)[C@H](CC(C)C)NC(=O)[C@@H](N)Cc1ccccc1)[C@@H](C)CC)C(=O)N[C@@H](CCCCN)C(=O)NCC(=O)N[C@@H](CC(C)C)C(=O)N[C@@H](CC(C)C)C(=O)N[C@@H](CCCCN)C(=O)N[C@@H](C)C(=O)N[C@@H](Cc1ccccc1)C(=O)N[C@H](C=O)CCCCN [FLFKLIPKAIKGLLKAFK]

MIC [4]: ≥ 80 µM
MIC [5]: > 80 µM
MIC [6]: ≥ 80 µM
Structure (SMILES): CC[C@H](C)[C@H](NC(=O)[C@@H](NC(=O)[C@@H]1CCCN1C(=O)[C@H](CC(C)C)NC(=O)[C@@H](N)Cc1ccccc1)[C@@H](C)CC)C(=O)NCC(=O)N[C@@H](CCC(N)=O)C(=O)N[C@@H](CC(C)C)C(=O)N[C@@H](CC(C)C)C(=O)N[C@@H](CO)C(=O)NCC(=O)N[C@@H](CC(C)C)C(=O)N[C@@H](CC(C)C)C(N)=O [FLPIIGQLLSGLL]

MIC [1]: 4.06 µM (≈ 8 µg/mL)
MIC [2]: ≥ 64.9 µM
MIC [3]: 8.11 µM (≈ 16 µg/mL)
Structure (SMILES): CC[C@H](C)[C@H](NC(=O)CNC(=O)CNC(=O)[C@H](C)NC(=O)[C@@H](NC(=O)[C@H](CCCCN)NC(=O)[C@@H]1CCCN1C(=O)[C@@H](NC(=O)[C@H](CCSC)NC(=O)[C@H](CO)NC(=O)[C@H](CC(C)C)NC(=O)[C@@H](N)Cc1ccccc1)[C@@H](C)CC)[C@@H](C)CC)C(=O)N[C@@H](C)C(=O)N[C@@H](CO)C(=O)N[C@@H](CC(C)C)C(=O)N[C@H](C(=O)N[C@@H](CCCCN)C(=O)N[C@@H](CC(N)=O)C(=O)N[C@@H](CC(C)C)C(N)=O)C(C)C [FLSMIPKIAGGIASLVKNL]

MIC [1]: 1 µM (≈ 1.45 µg/mL)
MIC [7]: > 512 µM
MIC [2]: ≥ 512 µM
MIC [8]: 2 µM (≈ 2.9 µg/mL)
MIC [9]: 2 µM (≈ 2.9 µg/mL)
MIC [3]: 2 µM (≈ 2.9 µg/mL)
Structure (SMILES): CC[C@H](C)[C@H](NC(=O)[C@H](Cc1ccc(O)cc1)NC(=O)[C@H](CC(C)C)NC(=O)[C@@H](N)Cc1ccccc1)C(=O)N[C@H](C(=O)N[C@@H](C)C(=O)N[C@@H](CCCCN)C(=O)N[C@@H](CC(C)C)C(=O)N[C@@H](CC(C)C)C(=O)N[C@@H](CO)C(=O)NCC(=O)N[C@@H](CC(C)C)C(=O)N[C@@H](CC(C)C)C(N)=O)C(C)C [FLYIVAKLLSGLL]

MIC [1]: 16 µM (≈ 31.6 µg/mL)
MIC [3]: ≥ 120 µM
Structure (SMILES): CC[C@H](C)[C@H](NC(=O)[C@H](C)NC(=O)CNC(=O)[C@@H](NC(=O)[C@@H](N)Cc1ccccc1)C(C)C)C(=O)N[C@@H](C)C(=O)N[C@@H](C)C(=O)N[C@@H](C)C(=O)N[C@@H](CC(C)C)C(=O)N1CCC[C@H]1C(=O)N[C@@H](Cc1cnc[nH]1)C(=O)N[C@H](C(=O)N[C@H](C(=O)N[C@@H](CO)C(=O)N[C@@H](C)C(=O)N[C@H](C(=O)N[C@@H](CCCCN)C(=O)N[C@@H](CC(N)=O)C(=O)N[C@@H](C)C(=O)N[C@@H](CC(C)C)C(=O)O)[C@@H](C)CC)[C@@H](C)CC)C(C)C [FVGAIAAALPHVISAIKNAL]

MIC [10]: 7.5 µM and 3.1 µM
MIC (Escherichia coli K-12): 15 µM (≈ 30.2 µg/mL)
Structure (SMILES): CC[C@H](C)[C@H](NC(=O)[C@H](CCCN=C(N)N)NC(=O)[C@H](CCC(N)=O)NC(=O)[C@@H](NC(=O)[C@@H](NC(=O)[C@H](CCCN=C(N)N)NC(=O)[C@H](CCCCN)NC(=O)[C@H](Cc1ccccc1)NC(=O)CN)[C@@H](C)CC)C(C)C)C(=O)N[C@@H](CCCCN)C(=O)N[C@@H](CC(=O)O)C(=O)N[C@@H](Cc1ccccc1)C(=O)N[C@@H](CC(C)C)C(=O)N[C@@H](C)C(=O)N[C@@H](CC(N)=O)C(=O)N[C@@H](CC(C)C)C(=O)N[C@H](C(N)=O)C(C)C [GFKRIVQRIKDFLANLV]

MIC [11]: ≥ 100 µM
Structure (SMILES): CC(C)C[C@H](NC(=O)[C@H](CC(C)C)NC(=O)[C@H](CC(C)C)NC(=O)[C@H](CC(C)C)NC(=O)[C@H](CC(C)C)NC(=O)[C@H](CC(C)C)NC(=O)[C@H](CCCCN)NC(=O)[C@H](CC(C)C)NC(=O)[C@@H](N)CCCCN)C(N)=O [KLKLLLLLL]

MIC [11]: 12.5 µM (≈ 16.4 µg/mL)
Structure (SMILES): CC[C@H](C)[C@H](NC(=O)[C@H](Cc1c[nH]c2ccccc12)NC(=O)[C@H](CCCN=C(N)N)NC(=O)[C@H](C)NC(=O)[C@H](Cc1c[nH]c2ccccc12)NC(=O)[C@@H](N)CCCCN)C(=O)N[C@@H](CCCN=C(N)N)C(=O)N[C@@H](Cc1c[nH]c2ccccc12)C(=O)N[C@@H](CC(C)C)C(N)=O [KWARWIRWL]

MIC [11]: 12.5 µM (≈ 17 µg/mL)
Structure (SMILES): CC[C@H](C)[C@H](NC(=O)[C@H](Cc1c[nH]c2ccccc12)NC(=O)[C@H](CCCN=C(N)N)NC(=O)[C@H](CCCN=C(N)N)NC(=O)[C@H](Cc1c[nH]c2ccccc12)NC(=O)[C@@H](N)CCCCN)C(=O)N[C@@H](CCCN=C(N)N)C(=O)N[C@@H](Cc1c[nH]c2ccccc12)C(=O)N[C@@H](C)C(N)=O [KWRRWIRWA]

MIC [11]: ≥ 100 µM
Structure (SMILES): CC(C)C[C@H](NC(=O)[C@H](CC(C)C)NC(=O)[C@H](CCCCN)NC(=O)[C@H](CCCCN)NC(=O)[C@H](CC(C)C)NC(=O)[C@H](CC(C)C)NC(=O)[C@H](CC(C)C)NC(=O)[C@H](CC(C)C)NC(=O)[C@@H](N)CC(C)C)C(N)=O [LLLLLKKLL]

MIC (Escherichia coli BW25113): 4 µM (≈ 8.37 µg/mL)
Structure (SMILES): CC[C@H](C)[C@H](NC(=O)[C@H](CCCN=C(N)N)NC(=O)[C@@H](N)CCCN=C(N)N)C(=O)N[C@@H](CCCN=C(N)N)C(=O)N[C@@H](Cc1ccccc1)C(=O)N[C@@H](CCCN=C(N)N)C(=O)N1CCC[C@H]1C(=O)N1CCC[C@H]1C(=O)N[C@@H](Cc1ccc(O)cc1)C(=O)N[C@@H](CC(C)C)C(=O)N1CCC[C@H]1C(=O)N[C@@H](CCCN=C(N)N)C(=O)N1CCC[C@H]1C(=O)NCC(=O)N[C@@H](CCCN=C(N)N)C(=O)N[C@@H](CCCN=C(N)N)C(=O)O [RRIRFRPPYLPRPGRR]

MIC (Escherichia coli BW25113): 8 µM (≈ 19.6 µg/mL)
Structure (SMILES): CC[C@H](C)[C@H](NC(=O)[C@@H]1CCCN1C(=O)[C@H](CCCN=C(N)N)NC(=O)[C@H](CCCN=C(N)N)NC(=O)[C@H](CCCN=C(N)N)NC(=O)[C@H](Cc1c[nH]c2ccccc12)NC(=O)[C@@H]1CCCN1C(=O)[C@H](CCCN=C(N)N)NC(=O)[C@H](CCCN=C(N)N)NC(=O)[C@H](CCCN=C(N)N)NC(=O)[C@@H](N)CCCN=C(N)N)C(=O)N[C@@H](CCCN=C(N)N)C(=O)N1CCC[C@H]1C(=O)N1CCC[C@H]1C(=O)N[C@@H](Cc1ccccc1)C(=O)N[C@@H](Cc1ccc(O)cc1)C(=O)N[C@@H](Cc1c[nH]c2ccccc12)C(=O)O [RRRRPWRRRPIRPPFYW]

MIC (Escherichia coli BW25113): 8 µM (≈ 18.4 µg/mL)
Structure (SMILES): CC[C@H](C)[C@H](NC(=O)[C@@H]1CCCN1C(=O)[C@H](CCCN=C(N)N)NC(=O)[C@H](CCCN=C(N)N)NC(=O)[C@H](Cc1c[nH]c2ccccc12)NC(=O)[C@@H](N)CCCN=C(N)N)C(=O)N[C@@H](CCCN=C(N)N)C(=O)N[C@@H](CCCN=C(N)N)C(=O)N1CCC[C@H]1C(=O)N1CCC[C@H]1C(=O)N[C@H](C(=O)N[C@@H](CCCN=C(N)N)C(=O)N1CCC[C@H]1C(=O)N1CCC[C@H]1C(=O)N[C@@H](Cc1c[nH]c2ccccc12)C(=O)N[C@@H](Cc1ccc(O)cc1)C(=O)N1CCC[C@H]1C(=O)O)[C@@H](C)CC [RWRRPIRRPPIRPPWYP]

MIC (Escherichia coli BW25113): 8 µM (≈ 18.3 µg/mL)
Structure (SMILES): CC[C@H](C)[C@H](NC(=O)[C@@H]1CCCN1C(=O)[C@H](Cc1c[nH]c2ccccc12)NC(=O)[C@H](CCCN=C(N)N)NC(=O)[C@H](Cc1c[nH]c2ccccc12)NC(=O)[C@@H](N)CCCN=C(N)N)C(=O)N[C@@H](CCCN=C(N)N)C(=O)N[C@@H](CCCN=C(N)N)C(=O)N1CCC[C@H]1C(=O)N1CCC[C@H]1C(=O)N[C@H](C(=O)N[C@@H](CCCN=C(N)N)C(=O)N1CCC[C@H]1C(=O)N1CCC[C@H]1C(=O)N[C@@H](Cc1ccccc1)C(=O)N[C@@H](Cc1ccc(O)cc1)C(=O)N1CCC[C@H]1C(=O)O)[C@@H](C)CC [RWRWPIRRPPIRPPFYP]

MIC [12]: ≥ 75 µM
Structure (SMILES): CC[C@H](C)[C@H](NC(=O)[C@H](CO)NC(=O)[C@H](CCCCN)NC(=O)[C@@H](N)CO)C(=O)N1CCC[C@H]1C(=O)NCC(=O)N[C@@H](CCCN=C(N)N)C(=O)N[C@@H](CO)C(=O)NCC(=O)O [SKSIPGRSG]

MIC [11]: 6.25 µM (≈ 9.02 µg/mL)
Structure (SMILES): CC(C)C[C@H](NC(=O)[C@H](Cc1c[nH]c2ccccc12)NC(=O)[C@H](Cc1c[nH]c2ccccc12)NC(=O)[C@H](CC(C)C)NC(=O)[C@H](Cc1c[nH]c2ccccc12)NC(=O)[C@H](CCCN=C(N)N)NC(=O)[C@H](CC(C)C)NC(=O)[C@H](Cc1c[nH]c2ccccc12)NC(=O)[C@@H](N)Cc1c[nH]c2ccccc12)C(N)=O [WWLRWLWWL]

MIC [11]: ≥ 100 µM
Structure (SMILES): CC(C)C[C@H](NC(=O)[C@H](Cc1c[nH]c2ccccc12)NC(=O)[C@H](Cc1c[nH]c2ccccc12)NC(=O)[C@H](CC(C)C)NC(=O)[C@H](Cc1c[nH]c2ccccc12)NC(=O)[C@H](Cc1c[nH]c2ccccc12)NC(=O)[C@H](CC(C)C)NC(=O)[C@H](Cc1c[nH]c2ccccc12)NC(=O)[C@@H](N)Cc1c[nH]c2ccccc12)C(N)=O [WWLWWLWWL]
